{"source": "patent US11833238B2", "about": "“Topical testosterone (T) for promoting hair growth-containing formulations” (priority 2012, dated 2023)", "key": {"[1]": {"conditions": "powder; cited from earlier work"}, "[2]": {"tested_on": "eyelash hair growth", "test": "appearance of lashes and hair around the eyes of glaucoma patients administering bimatoprost in only one eye (slit lamp biomicroscope)", "type": "in vivo, human", "conditions": "0.03% ophthalmic solution, more than 3 months, treated vs control eye", "description": "A study is initiated to systematically evaluate the appearance of lashes and hair around the eyes of patients who are administering bimatoprost in only one eye. The study involves 10 subjects, 5 male, 5 female, average age 70 years, (ranging from 50-94 years). All patients have glaucoma. Each subject is treated daily by the topical application of one drop of bimatoprost at a dosage of 1.5 µg/ml/eye/day (0.03%, by weight, ophthalmic solution, sold under the names Lumigan® and Latisse® by Allergan, Irvine, Calif., U.S.A.) to the region of one eye by instilling the drop onto the surface of the eye. The region of the fellow control eye is not treated with bimatoprost and served as a control.\nIn the course of treatment with eye drops, there is typically spontaneous tearing, and excess fluid from the drops and associated tears gathers at the lid margins. In the course of wiping the drug containing fluid from the lid margins and adjacent lid, a thin film of the fluid is routinely spread to contact the adjacent skin of the lid area.\nThe study is limited to subjects who have administered bimatoprost to one eye for more than 3 months. The mean duration of exposure to bimatoprost prior to assessing the parameter of lash growth between the control and study eye is 129 days (range 90-254 days). Observations are made under high magnification at the slit lamp biomicroscope. Documentation of differences between the control and treatment areas is accomplished using a camera specially adapted for use with the slit lamp biomicroscope. The results of the observations are as follows: Length of lashes: Increased length of eyelashes is regularly observed on the side treated with bimatoprost. The difference in length varies from approximately 10% to as much as 30%. […] In areas where there are a large number of lashes in the control eye, the increased number of lashes in the bimatoprost-treated eye gave the lashes on the treated side a more thickly matted overall appearance. […] These long, thick lash-like hairs were present in the central portion of the lids of several patients in a linear arrangement just above the lash line. Hairs are present at similar locations in the control eyes but are by contrast thinner or more fine in appearance, have less luster and pigment and are more flat against the skin of the lid typical of vellus or intermediate hairs. In several patients, lash-like terminal hairs grow luxuriantly in the medial canthal area in the treated eye. In the corresponding control eye, vellus hairs are seen at the same location. Lash-like hairs are also present in the lateral canthal area of the treated eye but not the control eye in several subjects. […]"}}, "data": [{"smiles": "CCNC(=O)CCC/C=C\\C[C@@H]1[C@@H](/C=C/[C@@H](O)CCc2ccccc2)[C@H](O)C[C@@H]1O", "note": "[bimatoprost, (Z)-7-[(1R,2R,3R,5S)-3,5Dihydroxy-2-[(1E,3S)-3-hydroxy-5-phenyl-1-pentenyl]cyclopentyl]-5-N-ethylheptenamide]", "values": [{"measurement": "solubility in ethyl alcohol", "setting": "[1]", "result": "very soluble"}, {"measurement": "solubility in methyl alcohol", "setting": "[1]", "result": "very soluble"}, {"measurement": "solubility in water", "setting": "[1]", "result": "slightly soluble"}, {"measurement": "Auxiliary lash-like hair growth", "setting": "[2]", "result": "apparent increase in lash-like hair in transitional areas adjacent to areas of normal lash distribution"}, {"measurement": "Number of lashes", "setting": "[2]", "result": "Increased numbers of lashes are observed in the treated eye of each patient"}, {"measurement": "Perpendicular angulation of hairs", "setting": "[2]", "result": "leave the surface of the skin at a more acute angle"}, {"measurement": "growth of vellus hair on lids", "setting": "[2]", "result": "vellus hairs are increased in number, appear more robust and are much longer and thicker in treated than in control eyes"}]}]}
